Like-named read-outs stand apart in the source and are kept apart here. Marks after values point to notes of the source that are not given here. Where a SMILES comes first, the peptide text is derived from it.
Assays:
[1] = Hyperlipidaemia induced by polyoxyethylene sorbitan monooleate (polysorbate-80) in rats, serum lipids; type: in vivo, Ratten; details: blood serum 24 h after polysorbate-80 300 mg/kg i.p.
Description: Die Versuche wurden an 51 Outbred-Ratten-Männchen der Linie Sprague-Dawley mit Körpergewicht von 220 - 240 g durchgeführt.
Die untersuchten Peptide wurden täglich in einer Tagesdosis von 20 und 200 µg/kg in den Magen im Laufe von 5 Tagen bis Hyperlipidämie-Ansatz verabreicht. Als Vergleichspräparat wurde ein Präparat gegen Hyperlipidämie aus der Gruppe von Fibric-Säure-Derivaten oder Fibraten - Bezafibrat (2-(b-parachlorobenzoyl-aminoethyl)phenoxy-2-methylpropinsäure) in der Dosis 50,0 mg/kg verwendet.
Die Hyperlipidämie wurde bei Ratten mittels intraperitonealer Einführung von Polyoxyethylen-sorbitan-monooleat (Polysorbat-80, Mischung von Polyäthylen-glykol-Esteren von Anhydrosorbit Monooleat) in einer Dosis von 300 mg/kg verabreicht. 24 Stunden später wurden die Ratten eingeschläfert. Danach wurden Triglyzeridspiegel, Gesamtcholesterin und Lipoproteid-Cholesterin mit hoher Dichte (HDL) im Blutserum der Tiere gemessen.
Infolge der Untersuchung der spezifischen pharmakologischen Aktivität wurde Folgendes festgestellt. Im Hintergrund der durch Polyoxyethylen-sorbitan-monooleat verursachten Hyperlipidämie üben Peptide eine hypolipidämische Wirkung aus. Das zeigt sich durch Senkung des Triglyzeridspiegels, des Gesamtcholesterinspiegels sowie durch Steigerung des HDL-Cholesterins im Blut (Tabelle 1) an. Tabelle 1

[2] = Alimentary atherogenic dyslipoproteinaemia (hypercholesterolaemic diet, 24 days) in rats, serum lipids; type: in vivo, Ratten; details: 100 µg/kg i.p. daily
Excerpt: Der Versuch wurde an 40 weißen Ratten-Männchen der Wistar-Linie mit einem Körpergewicht von 230 - 250 g durchgeführt. Die Tiere wurden in 4 Gruppen aufgeteilt. Gruppe 1: Referenzgruppe (Intakt), Gruppen 2 bis 4: Versuchsgruppen.
Die Versuchstiere wurden auf hypercholesterinämische (HCÄ) Diät gesetzt, um eine alimentäre atherogene Dyslipoproteinämie (DLP) zu modellieren. Die HCÄ- Diät umfasste mind. 7,5 % Cholesterin (CS), 45 % Fette und einen Überschuss an Vitamin D2 (500 000 IE). Gleichzeitig mit der Entwicklung von DLP erhielt die 3. Gruppe von Tieren Lys-Glu-Trp in einer Dosis von 100 µg/kg intraperitoneal täglich. Die 4. Gruppe von Tieren erhielt Lipanthyl 25 mg/kg intraperitoneal Lipanthyl 200M der Fa. Lab.Fournier S.A. (Frankreich) oder Fenofibrate, die zur Behandlung von Hyperlipoproteinämie verwendet werden, die sich mit keiner Diät mehr behandeln lässt. Der Versuch dauerte 24 Tage. […] Sie waren wohlgenährt und hatten glattes glänzendes Fell. Die Tiere aus der 2. Gruppe hatten zerzaustes Fell und zeigten Übererregbarkeit, was durch einen Überschuss an Vitamin D2 erklärt werden kann.
Nach dem Versuchsende wurde eine Dekapitation der Tiere vorgenommen. Danach wurden der Gesamt-Cholesterinspiegel (CS), Triglyzeridspiegel (TG), Cholesteringehalt der Lipoproteine hoher Dichte (CS HDL) im Blutserum der Tiere beurteilt und die Cholesterin-Konzentration der Lipoproteine niedriger Dichte (CS LDL) sowie der Cholesterin-HDL Quotient (LDL/HDL-Verhältnis) berechnet. Die genannten Kennziffern sind der Tabelle 2 zu entnehmen. Tabelle 2
Bei der Beurteilung wurden der Zustand und das Gewicht von Leber, Milz und Nebennieren berücksichtigt.

[3] = type: in vivo; details: 500 µg oral twice daily for 30 days
Excerpt: Die Untersuchung bezog sich auf Patienten mit einer verifizierten Diagnose eines metabolischen Syndroms. Die Diagnose wurde bei Erfüllung folgender Kriterien gestellt: arterielle Hypertension, gestörte Glukosetoleranz, Fettsucht, Dyslipidämie. Es wurden insgesamt 85 Patienten mit metabolischem Syndrom (50 Frauen, 35 Männer) untersucht. Das durchschnittliche Alter betrug bei den Männern 54,6 ± 12 Jahre, bei den Frauen 55,6 ± 13,0 Jahre.
Kriterien für die Einbeziehung der Patienten in die Forschung: • 1. Alter: Älter als 45 Jahre für Männer und Frauen. • 2. Vorhandensein von klinischen Merkmalen eines metabolischen Syndroms. • 3. Vorhandensein von verifizierter Pathologie des Magen-Darm-Kanals (Verstopfungen, Reizdarmsyndrom, Cholezystitis, Pankreatitis, Fettleber). • 4. Zustimmung des Patienten.
Die Kriterien für den Ausschluss der Kranken aus der Untersuchung waren das Vorhandensein von familiärer Dyslipidämie, akuter Pathologie des Magen-Darm-Kanals, Merkmalen der Helmintheninvasion und onkologischer und systematischer Pathologie.
Die Kombination der angewandten pathogenetischen Therapie unter Einsatz solcher Mittel wie ACE-Hemmer, Ca2^+-Kanal-Blocker, harntreibende Mittel, β-Blocker und deren Dosierung wurde aufgrund klinischer Indikationen festgelegt. Bei der Untersuchung wurden auch die mit Nitropräparaten sowie mit Statinen behandelten Kranken ausgeschlossen. Alle Kranken wurden einer hypocholesterinämisierenden Diät unterzogen, die eine Einnahme von Kleie einschließt.
Tripeptid Lys-Glu-Trp-NH2 wurde 47 Patienten oral in einer Dosis von 500 µg pro Gabe zweimal täglich im Laufe von 30 Tagen verabreicht. Die Unterbrechung zwischen den Behandlungen betrug 2 Monate.
Die Kranken wurden im Laufe von 12 Monaten beobachtet. Die Untersuchung umfasste 3 Phasen: Ursprungsphase (zum Zeitpunkt der Diagnoseüberprüfung), 6 Monate und ein Jahr später.
Folgende Parameter wurden bei allen Kranken analysiert: Geschlecht, Alter zum Zeitpunkt der Untersuchung, Krankheitsdauer, Dauer der arteriellen Hypertension, Fettsucht, Dyslipidämie. Die Untersuchung der Kranken umfasste eine Einschätzung der Risikofaktoren, wie z. B. Vererbung, Fettsucht, Zuckerkrankheit, koronare Herzkrankheit. Dabei wurde eine Sozialanamnese, d. h. Besonderheiten des Lebensstils, Ernährungsgewohnheiten, analysiert. Es wurden auch anthropometrische Messungen durchgeführt: Wuchs, Körpergewicht, Body-Maß- Index. Alle Kranken wurden einer planmäßigen Laboruntersuchung unterzogen und zwar: klinische Blutanalyse und Untersuchung von biochemischen Blutkennwerten. Es wurden Hämoglobingehalt, Erythrozytenmenge, Leukozyten-gehalt, Lymphozytengehalt ermittelt. Unter den biochemischen Serumkennwerten wurden Gesamteiweißgehalt, Albumine, Triglyzeridspiegel, Cholesterinspiegel, LDL, HDL, LDL/HDL-Verhältnis ermittelt. Die durchgeführten Instrumentenunter-suchungen umfassten Zuckerbelastungstest, Abdomen-Sonographie, Stuhluntersuchungen, Schilddrüsenfunktionsprüfung (Hormonstatus).

[4] = Alloxan diabetes in rats, blood glucose and response to insulin; type: in vivo, Ratten
Description: Bekanntlich ist Alloxan-Diabetes durch Schädigung der ß-Zellen von Pankreas gekennzeichnet und wird von ausgeprägter Hyperglykämie infolge eines Insulinmangels und einer Aktivierung von Glukoneogenese begleitet.
Der Versuch wurde an 18 weißen Outbred-Ratten-Männchen mit einem durchschnittlichen Körpergewicht von 349 ± 19 g durchgeführt. Nach der Ermittlung von Glukosekonzentration im Blut wurden alle Tiere in 2 Gruppen aufgeteilt. Danach erhielten alle Tiere einmalig intravenös je 1 ml Alloxanlösung ("Spofa") in einer Dosis von 35 mg/kg. 15 Tage danach wurde den Tieren aus der Referenzgruppe je 0,3 ml der 0,9 %igen NaCl-Lösung einmal täglich intraperitoneal verabreicht. Die Ratten aus der Hauptgruppe wurden mit Tripeptid Lys-Glu-Trp-NH2 in einer Dosis von 3 µg (in 0,3 ml der 0,9 %igen NaCl-Lösung) pro Ratte innerhalb von 11 Tagen behandelt. Eine separate Gruppe bestand aus 7 gesunden Ratten mit einem ähnlichen Körpergewicht.
Danach wurde allen Tieren Insulin (0,3 ME) intravenös verabreicht und die Glukosekonzentration im Blut gemessen.

[5] = 20 µg/kg daily into the stomach for 5 days
[6] = 200 µg/kg daily into the stomach for 5 days
[7] = 3 µg per rat i.p. for 11 days, 30 min after insulin 0,3 ME i.v.

## CC(C)(Oc1ccc(CCNC(=O)c2ccc(Cl)cc2)cc1)C(=O)O [Bezafibrat, 2-(b-parachlorobenzoyl-aminoethyl)phenoxy-2-methylpropinsäure]
[1]; 50,0 mg/kg (comparator)
  Gesamtcholesterin: 1,34±0,03 mMol/l
  HDL- Cholesterin: 0,98±0,05 mMol/l
  Triglyzeridspiegel: 0,55±0,06 mMol/l

## NCCCC[C@H](N)C(=O)N[C@@H](CCC(=O)O)C(=O)N[C@@H](Cc1c[nH]c2ccccc12)C(=O)O [Lys-Glu-Trp, L-Lysyl -L-Glutamyl-L-Tryptophan] (H-Lys-Glu-Trp-OH)
[1]; [5]
  HDL- Cholesterin: 0,97±0,04 mMol/l
  Triglyzeridspiegel: 0,58±0,05 mMol/l
[1]; [6]
  Gesamtcholesterin: 2,10±0,17 mMol/l
  HDL- Cholesterin: 0,60±0,02 mMol/l
  Triglyzeridspiegel: 0,67±0,05 mMol/l
[2]; HCÄ diet 24 days
  Wirkung auf das relative Gewicht von Leber, Milz und Nebennieren: keine ungünstige Wirkung
[2]; HCÄ diet 24 days, blood serum
  Triglyzeridspiegel: 0,96±0,16 mMol/l
[2]; during the 24-day experiment
  Aussehen der Tiere: normgerechtes Aussehen
[2]; calculated, HCÄ diet 24 days
  CS LDL: 0,71±0,24 mMol/l
  LDL/HDL-Verhältnis: 2,21±0,58* *
[2]; total cholesterol, HCÄ diet 24 days, blood serum
  CS: 1,70±0,27* * mMol/l

## NCCCC[C@H](N)C(=O)N[C@@H](CCC(=O)O)C(=O)N[C@@H](Cc1c[nH]c2ccccc12)C(N)=O [Lys-Glu-Trp-NH2] (H-Lys-Glu-Trp-NH2)
[1]; [5]
  Gesamtcholesterin: 1,69±0,15 mMol/l
  HDL- Cholesterin: 1,05±0,02 mMol/l
  Triglyzeridspiegel: 0,76±0,14 mMol/l
[1]; [6]
  Gesamtcholesterin: 1,22±0,15 mMol/l
  HDL- Cholesterin: 1,09±0,02 mMol/l
  Triglyzeridspiegel: 0,88±0,12 mMol/l
[3]; 2 months between courses, 12 months observation, with basic therapy, Fig. 1
  Cholesterin-Konzentration: zur Cholesterin-Konzentrationssenkung beitrug
[3]; in complex therapy
  Konzentration der Lipoproteine mit hoher Dichte: Konzentrationssteigerung der Lipoproteine mit hoher Dichte
  drucksenkender Effekt: schnelleren und stabileren drucksenkenden Effekt
[3]; with basic therapy, Fig. 3
  LDL/HDL-Verhältnis: ausgeprägte Verminderung des LDL/HDL-Verhältnisses
[3]; 3rd examination after one year, Fig. 2
  Konzentration der Triglyzeride: maximale Konzentrationssenkung der Triglyzeride
[4]; 3 µg per rat i.p. for 11 days
  Nebenwirkungen, Komplikationen, Arzneiabhängigkeit: keine Nebenwirkungen, Komplikationen und keine Arzneiabhängigkeit
[4]; 3 µg per rat i.p. for 11 days, starting 15 days after alloxan 35 mg/kg i.v., before insulin
  Glukosekonzentration im Blut (mg %) Ausgangsspiegel: 221,5±11,2 mg %
[4]; [7]
  Glukosekonzentration im Blut (mg %) 30 Minuten nach Insulineinführung: 123,6±8,3 mg %
  Senkung von Glukosespiegel im Vergleich zum Ausgangsspiegel (%): 44,2%
[4]; day 28 of the study, on average, 3 µg per rat i.p. for 11 days
  Senkung des Glukosespiegels im Blut: 34,8%
[4]; main group, 3 µg per rat i.p. for 11 days
  Letalität: Senkung der Letalität
[4]; versus alloxan diabetes + NaCl group
  Glukosespiegelsenkung nach der Insulineinführung gegenüber der Vergleichsgruppe: fast zweimal größere Glukosespiegelsenkung
